Experimental data taken from US20240041050A1, “CELL PENETRATING PEPTIDE MEDIATED RNA TRANSDUCTION WITHIN INSECT CELLS” (PIONEER HI-BRED INTERNATIONAL, INC., priority 2020, published 2024).
Peptide text beside a SMILES is read from it.

System: dvssj1 frag 1 dsRNA
Assay: CPP·dsRNA complex formation by gel shift assay
Format: binding
Conditions: 770 nM unlabeled dsRNA (2100 ng); molar ratio 1:4 through 8:1; 1.2% TE agarose gel
Description: FIG. 2 Formation of CPP·dsRNA complex as assessed by gel shift assay. FIG. 2A Reactions were assembled as described in Example 3, with increasing amounts of MPG-YFP added to […] Cy3-dsRNA (595.8 ng), from a molar ratio (CPP:dsRNA) of 1:4 through 8:1. After incubation, 20 μL reaction volumes were each mixed with 2 μL 10% molecular biology grade glycerol and electrophoresed on a 1.2% Tris-EDTA (TE) agarose gel and stained with Invitrogen™ SYBR Safe DNA Gel Stain (Thermo Fisher Scientific, Waltham, MA). Effects on mobility of the Cy3-dsRNA band are observed upon increasing molar ratios of MPG-YFP. […] The large relative size of MPG-YFP causes a large band shift. FIG. 2B Reactions were assembled as described in Example 3, with increasing amounts of CyLoP added to 770 nM dsRNA (2100 ng), from a molar ratio of 1:4 through 8:1. […] FIG. 2C Results of MPG-YFP binding to Cy3-dsRNA (described in 2A) assessed by DLS. […] Readings were collected using default settings for protein molecules, at 25° C. with a 15 second equilibration stage, using a Zetasizer Ultra and accompanying software (Malvern Panalytical, Malvern, United Kingdom). The dispersant was adjusted to account for the specific viscosity and refractive index of the complex formation solution prior to calculation of detected sizes. […]

Compound: N=C(N)NCCC[C@H](NC(=O)[C@H](Cc1c[nH]c2ccccc12)NC(=O)[C@H](CCCNC(=N)N)NC(=O)[C@@H](N)CS)C(=O)N[C@@H](Cc1c[nH]c2ccccc12)C(=O)N[C@@H](CCCCN)C(=O)N[C@@H](CS)C(=O)N[C@@H](CS)C(=O)N[C@@H](CCCCN)C(=O)N[C@@H](CCCCN)C(=O)O [CyLoP-1, CRWRWKCCKK] (H-CRWRWKCCKK-OH; N-terminus and C-terminus assumed)
- gel shift: apparent size of the RNA band with increasing CPP: binding of CyLoP molecules to the RNA
